pIC50: −log10 of the molar value. Read-outs that look alike come from different tables or passages of the source.
Legend:
[1] = test system: HCT116 MTAP WT cells; assay: Proliferation inhibition of HCT116 cells in vitro (CellTiter Glo); format: cell-based; details: 6 days, 9 concentrations starting from 30 μM, read-out: Cell proliferation inhibition rate HCT116 MTAP WT IC50 (nm)
Procedure, shortened: (§1)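 HCT116 (MTAP WT) or CRISPR MTAP-knockout HCT116 cells (100 per well) were exposed for 6 days at 37 °C to 9-point, 3-fold dilutions starting at 30 μM (WT) or 3 μM (KO), with 0.4% DMSO final. Viability was read by CellTiter-Glo luminescence, and IC50 came from a four-parameter fit.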

[2] = test system: HCT116-MTAP-KO cells (HCT116 MTAP null); assay: Proliferation inhibition of HCT116 MTAP-KO cells in vitro (CellTiter Glo); format: cell-based; details: 6 days, 9 concentrations starting from 3 μM, read-out: Cell proliferation inhibition rate HCT116 MTAP null IC50 (nm)
Procedure, shortened: as §1

pIC50 ([1]; Homo sapiens, HCT-116, 144 h)	pIC50 ([2]; HCT116-MTAP null, 144 h)	pIC50 [1]	pIC50 [2]	SMILES
5.00 to 6.00	> 7.00	–	–	Cc1ncn2c1c(N)nc1ccc(C(=O)N(Cc3nc(C4=CCOCC4)cs3)CC(C)C)cc12 [Example 303]
5.00 to 6.00	> 7.00	–	–	Cc1ncn2c1c(N)nc1ccc(C(=O)N(Cc3nc(-c4ncccn4)cs3)CC(C)C)cc12 [Example 305]
5.00 to 6.00	> 7.00	–	–	Cc1ncn2c1c(N)nc1ccc(C(=O)N(Cc3nc(-c4ccccn4)cs3)CC(C)C)cc12 [Example 307]
5.00 to 6.00	6.00 to 7.00	–	–	Cc1cccc(-c2ncc(CN(CC(C)C)C(=O)c3ccc4nc(N)c5c(C)ncn5c4c3)[nH]2)n1 [Example 308]
5.00 to 6.00	> 7.00	–	–	Cc1ncn2c1c(N)nc1ccc(C(=O)N(Cc3nc(C4CCOCC4)cs3)CC(C)C)cc12 [Example 310]
5.00 to 6.00	> 7.00	–	–	Cc1cccc(-c2csc(CN(CC(C)C)C(=O)c3ccc4nc(N)c5c(C)ncn5c4c3)n2)n1 [Example 312]
–	–	> 7.00	> 7.00	Cc1cnn2c1c(N)nc1ccc(C(=O)N(Cc3ccc(C(F)(F)F)cn3)C(C)c3ncccn3)cc12 (centres unmarked) [Example 315]
5.00 to 6.00	> 7.00	–	–	Cc1ncc2c(N)nc3cc(F)c(C(=O)N(Cc4cnn(C5CC5)c4)c4ccnn4C)cc3n12 [Example 317]
5.00 to 6.00	6.00 to 7.00	–	–	Cc1ncc2c(N)nc3cc(F)c(C(=O)N(Cc4cnc(C5CC5)n4C)c4ccnn4C)cc3n12 [Example 318]
5.00 to 6.00	6.00 to 7.00	–	–	Cc1ncc2c(N)nc3cc(F)c(C(=O)N(Cc4cnn(CC(F)(F)F)c4)c4ccnn4C)cc3n12 [Example 319]
5.00 to 6.00	6.00 to 7.00	–	–	COCCN(C)c1ccc(CN(C(=O)c2cc3c(cc2F)nc(N)c2cnc(C)n23)c2ccnn2C)nc1 [Example 320]
5.00 to 6.00	> 7.00	–	–	Cc1ncc2c(N)nc3cc(F)c(C(=O)N(Cc4cccc(C(F)(F)F)n4)c4ccnn4C)cc3n12 [Example 326]
5.00 to 6.00	6.00 to 7.00	–	–	Cn1ncc2c(N)nc3cc(F)c(C(=O)N4CCC5(CCN(c6ccc(C(F)(F)F)cc6)CC5)C4)cc3c21 [Example 414]

Reference: US20250376473A1, “PRMTS INHIBITOR AND USE THEREOF” (Cytosinlab Therapeutics Co., Ltd., priority 2022, published 2025)
